# Experimental data reported in publication PMC11272598, “RG7774 (Vicasinabin), an orally bioavailable cannabinoid receptor 2 (CB2R) agonist, decreases retinal vascular permeability, leukocyte adhesion, and ocular inflammation in animal models” (Frontiers in Pharmacology, 2024).
# Like-named read-outs stand apart in the source and are kept apart here.
# Experiments:
# Human 15-LOX = target: T1, Human 15-LOX (Homo sapiens, UniProt O15296); test: Human 15-LOX assay; assay type: biochemical; settings: RG7774 10 µM; read-out: Mean ± SEM % inhibition of control, Human 15-LOX
# T1 construct: purchased Cayman Chemical Company #10011263
# Protocol: The inhibitory effects of different concentrations of RG7774 (0.1-500 µM) on the activities of human recombinant 5-LOX (Cayman Chemical Company #60402), 15-LOX (Cayman Chemical Company #10011263), and human platelet-derived 12-LOX were determined using the Biovision Lipoxygenase Activity Assay Kit (#BVN-K978-100). This kit converts the LOX substrate to an intermediate that reacted with the probe, generating a fluorescent product. The effect of RG7774 (preincubated for 15 min) at 10 µM on LOXs (5-LOX: 0.5 or 1.2 µg; 12-LOX: 20 µg; 15-LOX: 0.23 or 0.3 µg) was ascertained by adding the compounds directly to the incubation medium and the fluorescent signal, recorded at excitation/emission 500/536 nm at 30 sec intervals for 30-40 min, was directly proportional to LOX activity. […] The percentage of human 5-, 12-, and 15-LOX activity (control) was estimated from the amount of oxidized probe in the reaction using a standard curve.
# [1] = target: T2, endogenous CB2R in mouse spleen tissues (Mus musculus, UniProt P47936); test: Competition binding, [^3H]-RO6753361, mouse spleen membranes
# T2 construct: from tissue; host or cells: mouse spleen membranes
# Protocol: Competition and saturation binding assays were performed using the radiolabeled CB1R/CB2R agonist [^3H]-CP55940 (PerkinElmer, Waltham, MA, United States) in recombinant cell systems, and the newly developed CB2R-selective agonist [^3H]-RO6753361 ([Chicca et al., 2024]) in cells expressing endogenous CB1R/CB2R. Competition assays were conducted by incubating 5, 40, or 40 µg of membrane protein from CHO cells, Jurkat cells or spleen cells, respectively, with 1.5 nM [^3H]-CP55940 or 1.5 nM [^3H]-RO6753361 in the presence or absence of increasing concentrations of ligand (RG7774 or control) for 2 h at 30°C in a final volume of 0.2 mL of assay buffer (50 mmol/L Tris-HCl, 5 mmol/L MgCl2, 2.5 mmol/L EDTA, and 0.5% fatty acid-free BSA [pH 7.4] and 1% DMSO), with gentle shaking. Saturation binding assays were conducted by incubating 1–3 μg, 40 μg, or 30–40 μg of membrane protein from CHO cells, Jurkat cells, or spleen tissue, respectively, with 12 concentrations in the range of 80–0.039 nM [^3H]-CP55940 or [^3H]-RO6753361 for 2 h at 30°C in a final volume of 0.2 mL/well of assay buffer without DMSO. […] IC50 values and Hill slopes were determined with a 4-parameter logistic model using ActivityBase (ID Business Solution, Guilford, United Kingdom) and pKi values were determined using the Cheng-Prusoff equation ([Cheng and Prusoff, 1973]).
# [2] = Kinetic lyophilization solubility assay (LYSA); assay type: physicochemical; settings: aqueous buffer, 0.05 M PBS pH 6.5
# Protocol: RG7774 samples were prepared in duplicate from 10 mM DMSO stock solutions. DMSO was evaporated for 1 h using a centrifugal vacuum evaporator (Genevac Technologies, UK) and the residue was dissolved in 0.05 M PBS (pH 6.5), stirred for 1 h, and shaken for 2 h. Solutions were filtered 12 h later using a microtiter filter plate (MSDV N65; Merck Millipore, MA, USA). The filtrate and its 1:10 dilution were analyzed by direct ultraviolet (UV) measurement or high-performance liquid chromatography with UV spectroscopy (HPLC-UV). […] The measurement range for a compound with molecular weight 500 was 0 to 666 μg/mL.
# Plasma protein binding = assay type: in vitro ADME; settings: read-out: PPB (fu)
# Protocol: Pooled and frozen plasma from selected species were obtained from commercial suppliers (human […] and mouse […]3-C57; BioreclamationIV, NY, USA). Unbound RG7774 was identified using a 96-well, 150 μL, half-cell capacity Teflon equilibrium dialysis device with a 12–14 kDa molecular weight cut-off membrane (HT-Dialysis; Gales Ferry, CT, USA) to minimize nonspecific binding. RG7774 and positive control (diazepam) were tested with an initial total concentration of 1000 nM (cassettes of 2 to 5 test items). Equal volumes of matrix samples containing RG7774 or diazepam and blank (Soerensen) dialysis buffer were loaded into the opposite compartments of each well. Biological matrix and phosphate buffer were adjusted to pH 7.4 on the day of the experiment. The dialysis block was sealed and incubated at 37 °C in 5% CO2 for 5 h. The seal was removed and matrix and buffer from each dialysis were sampled and analyzed by LC-MS/MS. All protein binding determinations were performed in triplicate. Membrane integrity was tested in the HT-Dialysis device by determining the unbound fraction values for diazepam in each well. At equilibrium, the unbound drug concentration in the biological matrix compartment of the equilibrium dialysis apparatus is the same as the concentration of the compound in the buffer compartment. Thus, the percent unbound fraction was calculated as follows: % fraction unbound = 100 × buffer concentration after dialysis/matrix concentration after dialysis. Device recovery was checked by measuring the concentrations of compound in the matrix before dialysis and calculating the percent recovery (mass balance). Recovery ranging from 80%–120% was required for data acceptance.
# GAL2 = GAL2 (Homo sapiens, UniProt O43603); assay type: binding
# From the text: Supplement Table1.docx, table 3: Supplementary Table S3. RG7774 binding to non-CB1R/CB2R receptors, ion channels, transporters, and enzymes (CEREP, Celle l’Evescault, France; http://www.cerep.fr). | column: % inhibition of control SB (n = 2)
# human CB1R = human CB1R (Homo sapiens, UniProt P21554); test: Forskolin-stimulated cAMP assay in CHO cells; assay type: cell-based; set-up: bgal (beta-galactosidase fragment of the PathHunter system); host or cells: CHO-K1; settings: recombinant CHO cells
# Protocol: The inhibitory effects of RG7774 on forskolin-stimulated accumulation of cAMP were determined using the cAMP-Nano-TRF detection kit (Roche Diagnostics, Penzberg, Germany), as previously described ([Porter et al., 2019]). CHOK1hCB1_bgal, CHOK1mCB2_bgal, and CHOK1hCB2_bgal cells (DiscoveRx, Fremont, CA, United States) were seeded 17–24 h prior to the experiment at a density of 3 × 10^4 cells per well in a black 96-well plate with a flat, clear bottom (Corning, Wiesbaden, Germany) prior to incubating in 5% CO2 at 37°C in a humidified incubator. The growth medium was exchanged with Krebs Ringer bicarbonate buffer containing 1 mM IBMX and 0.1% fatty acid-free BSA and incubated at 30°C for 1 h. RG7774 or positive control (CP55940) (1 µM) was added to a 0.1 mL final assay volume and the mixture was incubated at 30°C for 30 min. The assay was stopped by adding 50 μL 3x lysis reagent and shaking for 2 h at RT. The time-resolved energy transfer was measured using an LF502 Nanoscan FLT (IOM, Berlin, Germany) equipped with a laser excitation source. cAMP content was determined from a standard curve spanning 10–0.13 nM cAMP. Efficacies were expressed as a percentage relative to the positive control.
# Chain of human CB1R (P21554 whole entry, the tested form may be a part): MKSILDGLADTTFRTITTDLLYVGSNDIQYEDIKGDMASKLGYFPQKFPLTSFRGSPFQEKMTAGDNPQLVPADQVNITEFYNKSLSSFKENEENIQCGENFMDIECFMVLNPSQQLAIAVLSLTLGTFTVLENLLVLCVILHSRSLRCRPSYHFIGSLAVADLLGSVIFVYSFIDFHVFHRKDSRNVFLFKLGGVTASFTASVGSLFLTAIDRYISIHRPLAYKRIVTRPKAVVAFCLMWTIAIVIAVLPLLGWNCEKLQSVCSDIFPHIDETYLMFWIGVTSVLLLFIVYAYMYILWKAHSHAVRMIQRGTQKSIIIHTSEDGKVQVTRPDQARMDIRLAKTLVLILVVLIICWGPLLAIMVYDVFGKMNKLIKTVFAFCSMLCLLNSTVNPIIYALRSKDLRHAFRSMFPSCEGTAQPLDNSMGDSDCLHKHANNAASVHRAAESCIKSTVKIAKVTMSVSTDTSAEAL
# Chain of GAL2 (O43603 whole entry): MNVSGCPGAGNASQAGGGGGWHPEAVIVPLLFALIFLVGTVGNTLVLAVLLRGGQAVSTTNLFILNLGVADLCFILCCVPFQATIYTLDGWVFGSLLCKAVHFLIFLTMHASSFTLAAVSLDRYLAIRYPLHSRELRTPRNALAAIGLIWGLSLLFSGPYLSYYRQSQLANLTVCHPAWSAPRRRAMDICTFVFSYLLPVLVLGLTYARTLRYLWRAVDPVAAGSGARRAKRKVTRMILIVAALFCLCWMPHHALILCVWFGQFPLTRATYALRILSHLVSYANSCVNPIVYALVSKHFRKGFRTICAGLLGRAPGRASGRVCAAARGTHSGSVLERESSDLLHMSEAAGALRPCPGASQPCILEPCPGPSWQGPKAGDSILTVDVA
# T2 sequence (P47936 whole entry): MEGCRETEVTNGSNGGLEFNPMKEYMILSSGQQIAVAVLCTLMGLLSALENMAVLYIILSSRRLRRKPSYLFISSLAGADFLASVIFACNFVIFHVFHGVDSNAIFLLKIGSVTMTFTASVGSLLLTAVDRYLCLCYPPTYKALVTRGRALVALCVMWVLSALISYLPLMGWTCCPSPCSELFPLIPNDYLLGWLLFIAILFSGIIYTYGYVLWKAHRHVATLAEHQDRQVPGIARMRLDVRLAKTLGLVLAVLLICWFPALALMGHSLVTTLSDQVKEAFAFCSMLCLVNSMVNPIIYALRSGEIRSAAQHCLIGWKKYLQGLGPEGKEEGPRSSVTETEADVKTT
# T1 sequence (O15296 whole entry): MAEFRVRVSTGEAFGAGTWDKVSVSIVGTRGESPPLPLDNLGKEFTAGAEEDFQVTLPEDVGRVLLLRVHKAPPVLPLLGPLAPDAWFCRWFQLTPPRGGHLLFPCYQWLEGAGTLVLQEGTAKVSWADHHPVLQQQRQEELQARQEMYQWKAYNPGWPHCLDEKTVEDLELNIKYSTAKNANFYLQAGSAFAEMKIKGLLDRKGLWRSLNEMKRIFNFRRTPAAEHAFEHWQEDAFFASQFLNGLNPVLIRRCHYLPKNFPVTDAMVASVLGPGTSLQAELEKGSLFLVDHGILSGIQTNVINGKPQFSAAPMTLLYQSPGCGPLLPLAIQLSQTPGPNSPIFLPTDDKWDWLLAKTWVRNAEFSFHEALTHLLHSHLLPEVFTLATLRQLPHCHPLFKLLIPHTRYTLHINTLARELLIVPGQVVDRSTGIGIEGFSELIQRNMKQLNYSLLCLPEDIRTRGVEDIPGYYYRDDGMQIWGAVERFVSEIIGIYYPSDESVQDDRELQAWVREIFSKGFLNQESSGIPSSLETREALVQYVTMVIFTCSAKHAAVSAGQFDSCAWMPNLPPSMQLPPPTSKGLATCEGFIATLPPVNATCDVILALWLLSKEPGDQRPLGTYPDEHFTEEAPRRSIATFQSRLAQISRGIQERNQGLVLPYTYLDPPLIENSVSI
smiles,measurement,setting,value
"Cn1nnnc1Cn1nnc2c(N3CC[C@H](O)C3)nc(C(C)(C)C)nc21 [RG7774, (S)-1-(5-tert-butyl-3-[(1-methyl-1H-tetrazol-5-yl)methyl]-3H-[1,2,3]triazolo[4,5-d]pyrimidin-7-yl)pyrrolidin-3-ol]",inhibition at 10 µM,Human 15-LOX,-8.7%
same,Ki,[1],39.7 ± 13.5 nM
same,solubility kinetic,[2],285 µg/mL
same,"fraction unbound at 5 h, 1000 nM","Plasma protein binding; C57, pooled plasma, pH 7.4, mouse",0.045
same,"fraction unbound at 5 h, 1000 nM","Plasma protein binding; pooled plasma, pH 7.4, human",0.178
same,"fraction unbound at 5 h, 1000 nM","Plasma protein binding; pooled plasma, pH 7.4, rat",0.158
same,% inhibition of control SB (n = 2),GAL2,–4.0%
same,effect on human CB1R in cAMP assay,human CB1R,no effect
